Six compounds from article PMC10819888, “Benzimidazole-Based Derivatives as Apoptotic Antiproliferative Agents: Design, Synthesis, Docking, and Mechanistic Studies” (Molecules, 2024) can be followed below.

Structures are written as SMILES.

One may read the melting point as the temperature of the solid-liquid transition. Usually GI50 stands for the concentration at which growth is held to half of that of the control. Broadly, the TGI is the concentration giving total growth inhibition. A low value points to greater sensitivity of the cells. What is called LC50 is the concentration lethal to half of the exposed cells or organisms. Low readings indicate a more lethal substance, high ones a less lethal substance.

One series relates to SF-295. Kind of series: NCI-60 five-dose assay. In kind it is cell-based, human. Conditions: SF-295, CNS Cancer.
A further series has as its system OVCAR-4. Put plainly: NCI-60 five-dose assay. In kind it is cell-based, human. The settings on record: OVCAR-4, Ovarian Cancer.
A further series concerns DU-145. Put plainly: NCI-60 five-dose assay. In kind it is cell-based, human. The settings on record: DU-145, Prostate Cancer.
For a further series, the system named is HOP-62. Put plainly: NCI-60 five-dose assay. In kind it is cell-based, human. The settings on record: HOP-62, Non-Small Cell Lung Cancer.
The next series concerns NCI-H460. Kind of series: NCI-60 five-dose assay. Format: cell-based, human. The settings on record: NCI-H460, Non-Small Cell Lung Cancer.
A further series concerns EKVX. Put plainly: NCI-60 five-dose assay. Format: cell-based, human. Conditions: EKVX, Non-Small Cell Lung Cancer.
The test system of a further series is MDA-MB-468. Put plainly: NCI-60 five-dose assay. In kind it is cell-based, human. The settings on record: MDA-MB-468, Breast Cancer.
The next series concerns UO-31. Kind of series: NCI-60 five-dose assay. Format: cell-based, human. Conditions: UO-31, Renal Cancer.
The next series concerns MALME-3M. Kind of series: NCI-60 five-dose assay. Conditions: MALME-3M, Melanoma. In kind it is cell-based, human.
The next series relates to CNS Cancer subpanel. Kind of series: NCI-60 five-dose assay, subpanel. Format: cell-based, human. The settings on record: CNS Cancer.
The subject of another series is COLO 205. Kind of series: NCI-60 five-dose assay. In kind it is cell-based, human. Conditions: COLO 205, Colon Cancer.
The next series relates to HCT-15. Kind of series: NCI-60 five-dose assay. In kind it is cell-based, human. Conditions: HCT-15, Colon Cancer.
The subject of a further series is MOLT-4. Kind of series: NCI-60 five-dose assay. In kind it is cell-based, human. The settings on record: MOLT-4, Leukemia.
In another series the test system is SW-620. Kind of series: NCI-60 five-dose assay. In kind it is cell-based, human. Conditions: SW-620, Colon Cancer.
For another series, the system named is KM12. Put plainly: NCI-60 five-dose assay. In kind it is cell-based, human. Conditions: KM12, Colon Cancer.
A further series deals with Ovarian Cancer subpanel. Kind of series: NCI-60 five-dose assay, subpanel. Format: cell-based, human. The settings on record: Ovarian Cancer.
A further series has as its system SF-539. Kind of series: NCI-60 five-dose assay. Conditions: SF-539, CNS Cancer. In kind it is cell-based, human.
A further series relates to Renal Cancer subpanel. Kind of series: NCI-60 five-dose assay, subpanel. In kind it is cell-based, human. Conditions: Renal Cancer.
The test system of another series is Colon Cancer subpanel. Kind of series: NCI-60 five-dose assay, subpanel. In kind it is cell-based, human. Conditions: Colon Cancer.
For the next series, the system named is NCI-H226. Kind of series: NCI-60 five-dose assay. Format: cell-based, human. Conditions: NCI-H226, Non-Small Cell Lung Cancer.
In the next series the test system is NCI-H23. Kind of series: NCI-60 five-dose assay. Format: cell-based, human. The settings on record: NCI-H23, Non-Small Cell Lung Cancer.
The subject of a further series is MDA-MB-231. Kind of series: NCI-60 five-dose assay. In kind it is cell-based, human. Conditions: MDA-MB-231, Breast Cancer.
Another series deals with CCRF-CEM. Put plainly: NCI-60 five-dose assay. In kind it is cell-based, human. The settings on record: CCRF-CEM, Leukemia.
The subject of another series is M14. Kind of series: NCI-60 five-dose assay. In kind it is cell-based, human. Conditions: M14, Melanoma.
The next series deals with MDA-MB-435. Put plainly: NCI-60 five-dose assay. Format: cell-based, human. The settings on record: MDA-MB-435, Melanoma.
Setting [1] is: Homo sapiens, read-out: GI50 Conc. per Cell Line.
Setting [2] is: Homo sapiens, read-out: LC50 (the source's name).
Setting [3] is: Homo sapiens, average sensitivity of all subpanel cell lines, read-out: GI50 Subpanel MID b.

For the compound `CN(C)c1ccc(C=NNC(=O)c2ccc3[nH]c(-c4ccc(Cl)cc4)nc3c2)cc1` [Compound 4b, N′-(4-(Dimethylamino)benzylidene)-2-(4-chlorophenyl)-1H-benzimidazole-5-carbohydrazide], the melting point was in the range of 283 to 285 °C.

`O=C(NN=Cc1ccc(F)cc1)c1ccc2[nH]c(-c3ccc(Cl)cc3)nc2c1` [Compound 4d, N′-(4-Fluorobenzylidene)-2-(4-chlorophenyl)-1H-benzimidazole-5-carbohydrazide] came in with a melting point of 285 to 287 °C.

Regarding `O=C(NN=Cc1ccc(Cl)cc1Cl)c1ccc2[nH]c(-c3ccc(Cl)cc3)nc2c1` [Compound 4f, N′-(2,4-Dichlorobenzylidene)-2-(4-chlorophenyl)-1H-benzimidazole-5-carbohydrazide], the melting point is 294 to 297 °C.

Take `COc1ccc(C=NNC(=O)c2ccc3[nH]c(-c4ccc(Cl)cc4)nc3c2)cc1` [Compound 4g, N′-(4-Methoxybenzylidene)-2-(4-chlorophenyl)-1H-benzimidazole-5-carbohydrazide]: the GI50 in the series on SF-295 (setting [1]) is 2.23 µM; in the series on OVCAR-4 (setting [1]) it was 1.79 µM; in the series on DU-145 (setting [1]), 1.98 µM; in the series on HOP-62 (setting [1]), 1.88 µM; in the series on NCI-H460 (setting [1]) it was 1.83 µM; in the series with EKVX (setting [1]), 2.11 µM. Also, the GI50 came out at 1.94 µM in the series on MDA-MB-468 (setting [1]); 1.86 µM in the series on UO-31 (setting [1]); 1.67 µM with MALME-3M (setting [1]); 2.19 µM in the series on CNS Cancer subpanel (setting [3]); 1.94 µM with COLO 205 (setting [1]); 3.24 µM with HCT-15 (setting [1]). Besides, the GI50 came to 4.53 µM in the series on MOLT-4 (setting [1]); 2.41 µM with SW-620 (setting [1]); 3.03 µM in the series on KM12 (setting [1]); 3.05 µM in the series with Ovarian Cancer subpanel (setting [3]); 1.73 µM with SF-539 (setting [1]); 2.2 µM with Renal Cancer subpanel (setting [3]). Further, the GI50 in the series with Colon Cancer subpanel (setting [3]) was 2.63 µM; in the series on NCI-H226 (setting [1]) it was 1.79 µM; in the series on NCI-H23 (setting [1]), 2.74 µM; in the series on MDA-MB-231 (setting [1]), 2.42 µM; with CCRF-CEM (setting [1]) it was 4.9 µM; in the series with M14 (setting [1]), 2.41 µM. The GI50 in the series on MDA-MB-435 (setting [1]) was determined as 3.11 µM. Further, the CC50 with SF-295 (setting [2]) was found to be 15 µM; in the series with OVCAR-4 (setting [2]), 6.33 µM; with DU-145 (setting [2]) it was 14 µM; in the series on HOP-62 (setting [2]) it was 53.6 µM; in the series with EKVX (setting [2]) it was 36.6 µM; with UO-31 (setting [2]), 25.7 µM. Further, the CC50 is 33 µM with COLO 205 (setting [2]); 82 µM in the series on HCT-15 (setting [2]); more than 100 µM in the series on MOLT-4 (setting [2]); more than 100 µM in the series on KM12 (setting [2]); 6.92 µM with SF-539 (setting [2]); 13.5 µM with NCI-H226 (setting [2]). Besides, the CC50 is 75.9 µM in the series on NCI-H23 (setting [2]); 18.8 µM in the series on MDA-MB-231 (setting [2]); more than 100 µM in the series with CCRF-CEM (setting [2]); 40.5 µM in the series on M14 (setting [2]); 45.5 µM in the series on MDA-MB-435 (setting [2]). The TGI in the series on SF-295 came to 5.05 µM; with OVCAR-4, 3.36 µM; in the series on DU-145, 4.61 µM; in the series on HOP-62, 6.37 µM; in the series with NCI-H460, 3.59 µM; with EKVX it was 5.84 µM. The TGI was determined as 4.55 µM with MDA-MB-468; 6.38 µM in the series on UO-31; 3.63 µM in the series with MALME-3M; 5.43 µM with COLO 205; 12.80 µM with HCT-15; 30.40 µM in the series with MOLT-4. Moreover, the TGI was 5.58 µM in the series with SW-620; 9.58 µM in the series with KM12; 3.46 µM in the series with SF-539; 4.43 µM in the series on NCI-H226; 11.20 µM with NCI-H23; 5.45 µM with MDA-MB-231. The TGI in the series with CCRF-CEM is reported as more than 100 µM; in the series on M14 it was 7.76 µM; in the series with MDA-MB-435, 9.84 µM. Also, the LC50 in the series with NCI-H460 (Homo sapiens) turned out to be 7.05 µM; in the series on MALME-3M (Homo sapiens), 7.9 µM; in the series on SW-620 (Homo sapiens), 31 µM. The LC50 (concentration killing 50% of cells) in the series with MDA-MB-468 (Homo sapiens) turned out to be 12.6 µM. The “GI50 Selectivity Ratio (MID a/MID b)” value in the series with CNS Cancer subpanel is on record as 1.15; with Ovarian Cancer subpanel, 0.83; in the series on Renal Cancer subpanel, 1.14; in the series on Colon Cancer subpanel, 0.96.

With `O=C(N/N=C/c1ccc(O)cc1)c1ccc2[nH]c(-c3ccc(Cl)cc3)nc2c1` [Compound 4i, N′-(4-Hydroxybenzylidene)-2-(4-chlorophenyl)-1H-benzimidazole-5-carbohydrazide], the melting point was 263 to 265 °C.

`CCn1c(-c2ccc3[nH]c(-c4ccc(Cl)cc4)nc3c2)n[nH]c1=S` [Compound 6, 4-ethyl-5-(2-(4-chlorophenyl)-1H-benzimidazol-5-yl)-2,4-dihydro-3H-1,2,4triazole-3-thione] registered a melting point of 292 to 294 °C.
